Values quoted from earlier work as cited in patent publication US20050187278A1, “Treatment or prevention of vascular disorders with Cox-2 inhibitors in combination with cyclic AMP-specific phosphodiesterase inhibitors” (Pharmacia Corporation, priority 2003, published 2005).

Key:
PDE4 [1] = test system: PDE4
PDE3 = conditions: first of two values given 'respectively' for PDE3 and 4
PDE4 [2] = conditions: second of two values given 'respectively' for PDE3 and 4

For COc1ccc([C@@H]2CNC(=O)C2)cc1OC1CCCC1 [Compound C6, (4R)-4-[3-(Cyclopentyloxy)-4-methoxyphenyl]pyrrolidin-2-one], the “fold more potent than the S-(+) enantiomer” value (PDE4 [1]; PDE4 inhibitor rolipram, R-(-) versus S-(+) enantiomer) is given as “rolipram; 2-10-fold”.
In the case of COc1ccc([C@H]2CNC(=O)C2)cc1OC1CCCC1 [Compound C7, (4S)-4-[3-(Cyclopentyloxy)-4-methoxyphenyl]pyrrolidin-2-one], the “activity relative to the other enantiomer of the PDE4 inhibitor rolipram” value (PDE4 [1]; in words) is listed as “Less active”.
In the case of COc1cc(-c2ccc(=O)[nH]n2)ccc1OC(F)F [Compound C8, 6-[4-(Difluoromethoxy)-3-methoxyphenyl]-3(2H)-pyridazinone], the IC50 (PDE3) is given as 500 nM and the IC50 (PDE4 [2]) is given as 800 nM.
